# Assay results reported in PMC11224109, “Synthesis and preclinical evaluation of novel ^18F-vancomycin-based tracers for the detection of bacterial infections using positron emission tomography” (European Journal of Nuclear Medicine and Molecular Imaging, 2024).
# Columns and labels:
# Gram-positive bacteria = test: Tracer binding to test panel of clinically relevant bacteria, Gram-positive; parameters: species or system C. acnes, E. faecalis, S. aureus, S. capitis, S. epidermidis; details: summary table
# Description: Clinical isolates of E. cloacae, S. capitis, S. aureus, as well as type strains of E. coli, E. faecalis, K. pneumoniae, P. aeruginosa and S. epidermidis were grown under aerobic conditions in brain heart infusion broth. A clinical isolate of the anaerobic bacterium C. acnes was grown on plate in an anaerobic chamber, and subsequently cultured in liquid medium with minimal headspace. Samples from fresh bacterial cultures were normalized to an OD600 of 1.0, fixed in PBS with 0.5% paraformaldehyde (PFA) for 10 min at room temperature, and resuspended in 1 mL sterile PBS. The fixated bacteria were incubated with tracer (133 kBq per mL, 42.8 pg and 0.6 pg of [^18F]BODIPY-FL-vancomycin and [^18F]PQ-VE1-vancomycin, respectively) and washed twice with sterile PBS. […] Measurements were corrected for background and decay. Results are reported as percentage of the total tracer added.
# [1] = test system: S. aureus USA300 MRSA strain; test: Competition with unlabeled vancomycin; format: binding, Staphylococcus aureus; details: for Tracer binding to S. aureus at a concentration of 1024 µg/mL vancomycin / Tracer binding to S. aureus at vancomycin concentrations below 2 µg/mL / Tracer binding to S. aureus at vancomycin concentrations of up to 64 µg/mL: S. aureus USA300, OD600 0.2, 125 kBq tracer per mL, 30 min incubation, gamma counter
# Description: [^18F]FB-vancomycin was excluded due to its limited in vitro and in vivo stability. On the day of the experiment, a fresh culture was started in 10 mL of TSB and grown to an OD600 of 2.0. […] Bacteria were added to the dilutions to obtain a final OD600 of 0.2 and the vial was briefly vortexed to ensure proper mixing. Tracer was added (125 kBq per mL, 40.3 pg and 0.5 pg of [^18F]BODIPY-FL-vancomycin and [^18F]PQ-VE1-vancomycin, respectively) and the vial was vortexed again. After 30 min incubation, aliquots were collected in 2 mL Eppendorf tubes and washed twice with PBS by centrifugation. […] Measurements were corrected for background and decay. Results are reported as 10^3 counts per s (kBq).
# [2] = test system: S. epidermidis ATCC 35,984; details: ATCC 35, 17 h
# Description: From a single colony an overnight culture was inoculated in Mueller Hinton Broth (MHB) and incubated overnight. On the day of the experiment, a fresh culture was started in 10 mL of MHB until exponential phase was reached. From this, the culture was diluted to an OD600 of 0.01 for the MIC experiment. […] Growth was recorded using a BioTeK Synergy2 microplate spectrophotometer (Agilent, Santa Clara, United States).
# [3] = up to 120 min, previously shown; cited from earlier work
# Description: Tracer stability was assessed in both PBS and human plasma. […] In contrast, > 90% of the [^18F]BODIPY-FL-vancomycin remained stable in PBS and plasma for up to 120 min, as was also previously shown for [^18F]PQ-VE1-vancomycin [44].
# S. aureus = details: previously reported; cited from earlier work
# Description: (§1) In vitro binding of [^18F]BODIPY-FL-vancomycin and [^18F]FB-vancomycin to the Gram-positive bacterium S. aureus and the Gram-negative bacterium E. coli was assayed by incubating the bacteria with either one of the two tracers and collecting samples at fixed time intervals to determine the radioactivity associated with the bacteria.
# E. coli = details: previously reported; cited from earlier work
# Description: as §1
Compound,Binding to Gram-positive bacteria in vitro (Gram-positive bacteria),"Vancomycin concentrations at which tracer binding is outcompeted, compared with [^18F]PQ-VE1-vancomycin ([1]; S. aureus USA300, 30 min incubation)",Tracer binding to S. aureus at a concentration of 1024 µg/mL vancomycin [1],Tracer binding to S. aureus at vancomycin concentrations below 2 µg/mL [1],Tracer binding to S. aureus at vancomycin concentrations of up to 64 µg/mL [1],MIC [2] [µg/mL],Tracer remaining stable in PBS [3],Tracer remaining stable in human plasma [3],Binding to S. aureus (S. aureus),Binding to E. coli (E. coli)
Cc1cc(C)n2c1C=C1C=CC(CCC(=O)N(C)[C@H](CC(C)C)C(=O)N[C@H]3C(=O)N[C@@H](CC(N)=O)C(=O)N[C@H]4C(=O)N[C@H]5C(=O)N[C@H](C(=O)N[C@H](C(=O)O)c6cc(O)cc(O)c6-c6cc5ccc6O)[C@H](O)c5ccc(c(Cl)c5)Oc5cc4cc(c5O[C@@H]4O[C@H](CO)[C@@H](O)[C@H](O)[C@H]4O[C@H]4C[C@](C)(N)[C@H](O)[C@H](C)O4)Oc4ccc(cc4Cl)[C@H]3O)=[N+]1[B-]2(F)F [[^18F]BODIPY-FL-vancomycin],LogD7.4 -1.72. Am 5.35 GBq/µmol. MIC 16 µg/mL. Binding to Gram-positive bacteria in vitro.,slightly lower,reduced to baseline,not significantly inhibited,signal over background was still detected,16,,,,
CN[C@H](CC(C)C)C(=O)N[C@H]1C(=O)N[C@@H](CC(N)=O)C(=O)N[C@H]2C(=O)N[C@H]3C(=O)N[C@H](C(=O)N[C@H](C(=O)O)c4cc(O)cc(O)c4-c4cc3ccc4O)[C@H](O)c3ccc(c(Cl)c3)Oc3cc2cc(c3O[C@@H]2O[C@H](CO)[C@@H](O)[C@H](O)[C@H]2O[C@H]2C[C@](C)(NC(=O)c3ccc4c5c(c6ccccc6c4c3)OCC(OCCF)O5)[C@H](O)[C@H](C)O2)Oc2ccc(cc2Cl)[C@H]1O (some centres unmarked) [[^18F]PQ-VE1-vancomycin],Binding to Gram-positive bacteria in vitro,,reduced to baseline,not significantly inhibited,signal over background was still detected,,over 90%,over 90%,rapid and selective binding to S. aureus,not to E. coli
